This note sets out measurements from PubChem BioAssay (NCI).

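Cultured in 96-well plates, cells were exposed to test compound for 48 hours across five concentrations. At the TGI there is no net growth.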 Bounds are passed on as bounds.

One assay concerns MDA-MB-231 breast. Kind of assay: growth of human tumour cells (NCI), 48 h.
Compound `Cc1nn(C(=O)Cc2ccccc2)c2c1C(c1ccc(Cl)cc1)SC(N)=N2` (configuration not stated) showed a TGI greater than 100 µM.
The same measure, in the same setting: then `CC(C)N(C(=O)C1(O)c2ccccc2C=Cc2ccccc21)C(C)C`, with 29.3 µM; and `O=C1c2cccc3cccc(c23)C2NCCCN12` (configuration not stated), with greater than 100 µM.
For the compound `CCCCCC(=O)CCCCCCCC(O)CC(=O)OCC` (configuration not stated), the TGI is greater than 100 µM.
Same read-out and setting: as for `COc1ccc(-c2nc(-c3cc4c(ccc5ccccc54)oc3=O)cs2)cc1`, the figure is greater than 100 µM; as for `CC(=O)N(CCc1ccccc1)C(C#N)c1ccccc1` (configuration not stated), greater than 100 µM; as for `Cc1nn(C(=O)c2ccc(Cl)cc2)c2c1C(/C=C/c1ccccc1)SC(N)=N2` (configuration not stated), greater than 10 µM.
Still for that read-out and setting: as for `Cc1cc(C)c(C(=O)c2nnc3ccccc3c2N)c(C)c1`, the figure is 63.8 µM; as for `O=C1NC(=O)C(c2c[nH]c3ccccc23)=C1c1cn(C(c2ccccc2)(c2ccccc2)c2ccccc2)cn1`, 25.7 µM; as for `Cc1cc(C)c2c(c1)C/C(=C\c1ccccc1C(=O)O)C2=O`, greater than 100 µM.
With `CCOC(=O)c1nc2ccc(C(F)(F)F)cc2[nH]c1=O`, the TGI was greater than 100 µM.
The same measure, in the same setting: as for `Cc1cn(C2CC(O)C(CO[Si](C)(C)C(C)(C)C)OC2OC(C)C)c(=O)[nH]c1=O` (configuration not stated), the figure is greater than 100 µM; as for `Cc1nc2ccc(NC(=S)Nc3ccccc3)cc2c(=O)n1-c1ccccc1`, greater than 100 µM.
Still for that read-out and setting: as for `COC(=O)C1(C(=O)OC)C/C(C)=C(/C)SCCCS1`, the figure is greater than 100 µM.
The same measure, in the same setting: then `O=c1cc(CO)oc(C(O)c2ccccc2)c1O` (configuration not stated), with greater than 100 µM.

Another assay has as its system SN12C renal. Briefly: growth of human tumour cells (NCI), 48 h.
The compound `Cc1nn(C(=O)Cc2ccccc2)c2c1C(c1ccc(Cl)cc1)SC(N)=N2` (configuration not stated) registered a TGI greater than 100 µM.
In turn, `CC(C)N(C(=O)C1(O)c2ccccc2C=Cc2ccccc21)C(C)C` showed a TGI of 31.4 µM.
Still for that read-out and setting: then `O=C1c2cccc3cccc(c23)C2NCCCN12` (configuration not stated), with greater than 100 µM; and `CCCCCC(=O)CCCCCCCC(O)CC(=O)OCC` (configuration not stated), with greater than 100 µM.
Same read-out and setting: then `COc1ccc(-c2nc(-c3cc4c(ccc5ccccc54)oc3=O)cs2)cc1`, with greater than 100 µM; and `CC(=O)N(CCc1ccccc1)C(C#N)c1ccccc1` (configuration not stated), with greater than 100 µM.
Same read-out and setting: then `Cc1nn(C(=O)c2ccc(Cl)cc2)c2c1C(/C=C/c1ccccc1)SC(N)=N2` (configuration not stated), with greater than 10 µM.
The compound `Cc1cc(C)c(C(=O)c2nnc3ccccc3c2N)c(C)c1` displayed a TGI of 38.5 µM.
Same read-out and setting: then `O=C1NC(=O)C(c2c[nH]c3ccccc23)=C1c1cn(C(c2ccccc2)(c2ccccc2)c2ccccc2)cn1`, with 20.3 µM.
On the same count and under the same terms, as for `Cc1cc(C)c2c(c1)C/C(=C\c1ccccc1C(=O)O)C2=O`, the figure is greater than 100 µM; as for `CCOC(=O)c1nc2ccc(C(F)(F)F)cc2[nH]c1=O`, greater than 100 µM.
Compound `Cc1cn(C2CC(O)C(CO[Si](C)(C)C(C)(C)C)OC2OC(C)C)c(=O)[nH]c1=O` (configuration not stated) registered a TGI greater than 100 µM.
Same read-out and setting: as for `Cc1nc2ccc(NC(=S)Nc3ccccc3)cc2c(=O)n1-c1ccccc1`, the figure is greater than 100 µM; as for `COC(=O)C1(C(=O)OC)C/C(C)=C(/C)SCCCS1`, greater than 100 µM.
Same read-out and setting: as for `O=c1cc(CO)oc(C(O)c2ccccc2)c1O` (configuration not stated), the figure is greater than 100 µM.

In a further assay the test system is MDA-MB-435. Kind of assay: growth of human tumour cells (NCI), 48 h.
For `Cc1nn(C(=O)Cc2ccccc2)c2c1C(c1ccc(Cl)cc1)SC(N)=N2` (configuration not stated), the TGI is greater than 100 µM.
Regarding `CC(C)N(C(=O)C1(O)c2ccccc2C=Cc2ccccc21)C(C)C`, the TGI was greater than 100 µM.
The same measure, in the same setting: then `O=C1c2cccc3cccc(c23)C2NCCCN12` (configuration not stated), with greater than 100 µM.
In turn, `CCCCCC(=O)CCCCCCCC(O)CC(=O)OCC` (configuration not stated) showed a TGI greater than 100 µM.
Still for that read-out and setting: as for `COc1ccc(-c2nc(-c3cc4c(ccc5ccccc54)oc3=O)cs2)cc1`, the figure is greater than 100 µM.
Same read-out and setting: as for `CC(=O)N(CCc1ccccc1)C(C#N)c1ccccc1` (configuration not stated), the figure is greater than 100 µM; as for `Cc1nn(C(=O)c2ccc(Cl)cc2)c2c1C(/C=C/c1ccccc1)SC(N)=N2` (configuration not stated), greater than 10 µM.
The same measure, in the same setting: then `Cc1cc(C)c(C(=O)c2nnc3ccccc3c2N)c(C)c1`, with 56.3 µM; and `O=C1NC(=O)C(c2c[nH]c3ccccc23)=C1c1cn(C(c2ccccc2)(c2ccccc2)c2ccccc2)cn1`, with 12.9 µM.
In turn, `CCOC(=O)c1nc2ccc(C(F)(F)F)cc2[nH]c1=O` registered a TGI greater than 100 µM.
Same read-out and setting: as for `Cc1cn(C2CC(O)C(CO[Si](C)(C)C(C)(C)C)OC2OC(C)C)c(=O)[nH]c1=O` (configuration not stated), the figure is greater than 100 µM; as for `Cc1nc2ccc(NC(=S)Nc3ccccc3)cc2c(=O)n1-c1ccccc1`, greater than 100 µM; as for `COC(=O)C1(C(=O)OC)C/C(C)=C(/C)SCCCS1`, greater than 100 µM.
With `O=c1cc(CO)oc(C(O)c2ccccc2)c1O` (configuration not stated), the TGI is greater than 100 µM.

For a further assay, the system named is UO-31 renal. Kind of assay: growth of human tumour cells (NCI), 48 h.
`CC(C)N(C(=O)C1(O)c2ccccc2C=Cc2ccccc21)C(C)C`: the TGI worked out at 40.1 µM.
Same read-out and setting: then `O=C1c2cccc3cccc(c23)C2NCCCN12` (configuration not stated), with greater than 100 µM.
The same measure, in the same setting: as for `CCCCCC(=O)CCCCCCCC(O)CC(=O)OCC` (configuration not stated), the figure is greater than 100 µM; as for `COc1ccc(-c2nc(-c3cc4c(ccc5ccccc54)oc3=O)cs2)cc1`, greater than 100 µM; as for `CC(=O)N(CCc1ccccc1)C(C#N)c1ccccc1` (configuration not stated), greater than 100 µM.
On the same count and under the same terms, as for `Cc1cc(C)c2c(c1)C/C(=C\c1ccccc1C(=O)O)C2=O`, the figure is greater than 100 µM; as for `CCOC(=O)c1nc2ccc(C(F)(F)F)cc2[nH]c1=O`, greater than 100 µM; as for `Cc1cn(C2CC(O)C(CO[Si](C)(C)C(C)(C)C)OC2OC(C)C)c(=O)[nH]c1=O` (configuration not stated), greater than 100 µM.
The compound `Cc1nc2ccc(NC(=S)Nc3ccccc3)cc2c(=O)n1-c1ccccc1` had a TGI greater than 100 µM.
Compound `COC(=O)C1(C(=O)OC)C/C(C)=C(/C)SCCCS1` returned a TGI greater than 100 µM.
Still for that read-out and setting: as for `O=c1cc(CO)oc(C(O)c2ccccc2)c1O` (configuration not stated), the figure is greater than 100 µM.

The subject of the next assay is HOP-62 NSCLC. Kind of assay: growth of human tumour cells (NCI), 48 h.
`Cc1nn(C(=O)Cc2ccccc2)c2c1C(c1ccc(Cl)cc1)SC(N)=N2` (configuration not stated) displayed a TGI greater than 100 µM.
Regarding `CC(C)N(C(=O)C1(O)c2ccccc2C=Cc2ccccc21)C(C)C`, the TGI was 35.6 µM.
Still for that read-out and setting: then `O=C1c2cccc3cccc(c23)C2NCCCN12` (configuration not stated), with greater than 100 µM.
On the same count and under the same terms, then `CCCCCC(=O)CCCCCCCC(O)CC(=O)OCC` (configuration not stated), with greater than 100 µM.
Same read-out and setting: as for `COc1ccc(-c2nc(-c3cc4c(ccc5ccccc54)oc3=O)cs2)cc1`, the figure is greater than 100 µM; as for `CC(=O)N(CCc1ccccc1)C(C#N)c1ccccc1` (configuration not stated), greater than 100 µM.
As to `Cc1nn(C(=O)c2ccc(Cl)cc2)c2c1C(/C=C/c1ccccc1)SC(N)=N2` (configuration not stated), the TGI was greater than 10 µM.
Same read-out and setting: then `Cc1cc(C)c(C(=O)c2nnc3ccccc3c2N)c(C)c1`, with 32.9 µM; and `Cc1cc(C)c2c(c1)C/C(=C\c1ccccc1C(=O)O)C2=O`, with greater than 100 µM.
The same measure, in the same setting: as for `CCOC(=O)c1nc2ccc(C(F)(F)F)cc2[nH]c1=O`, the figure is greater than 100 µM; as for `Cc1nc2ccc(NC(=S)Nc3ccccc3)cc2c(=O)n1-c1ccccc1`, greater than 100 µM; as for `COC(=O)C1(C(=O)OC)C/C(C)=C(/C)SCCCS1`, greater than 100 µM.
